Calls of active or inactive are those of the source. The rule behind the calls is not given here.
Experiments:
[1] = biological target: Alpha-2A adrenergic receptor (Homo sapiens) (UniProt P08913); details: Compound concentration 10.0 uM
SUD4 = experiment: SU-DHL-4 cell line Proliferation assay; type: functional, Homo sapiens
[2] = biological target: T1, Sodium-dependent noradrenaline transporter (Homo sapiens, UniProt P23975); details: Compound concentration 10.0 uM
[3] = biological target: Muscarinic acetylcholine receptor M1 (Homo sapiens) (UniProt P11229); details: Compound concentration 10.0 uM
THP-1 = experiment: THP-1 cell line Proliferation assay; type: functional, Homo sapiens
[4] = biological target: 5-hydroxytryptamine receptor 2C (Homo sapiens) (UniProt P28335); details: Compound concentration 10.0 uM
[5] = biological target: Alpha-2C adrenergic receptor (Homo sapiens) (UniProt P18825); details: Compound concentration 10.0 uM
[6] = biological target: D(1A) dopamine receptor (Homo sapiens) (UniProt P21728); details: Compound concentration 10.0 uM
[7] = biological target: Beta-2 adrenergic receptor (Homo sapiens) (UniProt P07550); details: Compound concentration 10.0 uM
[8] = biological target: Muscarinic acetylcholine receptor M5 (Homo sapiens) (UniProt P08912); details: Compound concentration 10.0 uM
Bcl-2-related protein A1 = Bcl-2-related protein A1 (Homo sapiens, UniProt Q16548); experiment: HTRF (BCL2A1)
[9] = biological target: Apoptosis regulator Bcl-2 (Homo sapiens, UniProt P10415); experiment: HTRF (BCL2); type: functional
[10] = biological target: D(4) dopamine receptor (Homo sapiens) (UniProt P21917); details: Compound concentration 10.0 uM
[11] = biological target: Muscarinic acetylcholine receptor M3 (Homo sapiens) (UniProt P20309); details: Compound concentration 10.0 uM
[12] = biological target: T2, Induced myeloid leukemia cell differentiation protein Mcl-1 (Homo sapiens, UniProt Q07820); experiment: Caspase Glo MOLP-8 assay; type: functional, cell-based, MOLP8
KMS-12-PE [13] = experiment: (§1) KMS-12-PE cell line Proliferation assay; type: functional, Homo sapiens
[14] = biological target: T3, Delta-type opioid receptor (Homo sapiens, UniProt P41143); details: Compound concentration 10.0 uM
[15] = biological target: Histamine H3 receptor (Homo sapiens) (UniProt Q9Y5N1); details: Compound concentration 10.0 uM
[16] = biological target: 5-hydroxytryptamine receptor 1B (Homo sapiens) (UniProt P28222); details: Compound concentration 10.0 uM
OCI-AML2 = experiment: OCI-AML-2 cell line Proliferation assay; type: functional, Homo sapiens
[17] = biological target: Kappa-type opioid receptor (Homo sapiens) (UniProt P41145); details: Compound concentration 10.0 uM
[18] = biological target: Beta-3 adrenergic receptor (Homo sapiens) (UniProt P13945); details: Compound concentration 10.0 uM
[19] = biological target: 5-hydroxytryptamine receptor 2A (Homo sapiens) (UniProt P28223); details: Compound concentration 10.0 uM
EOL1 = experiment: EOL-1 cell line Proliferation assay; type: functional, Homo sapiens
[20] = biological target: Sigma non-opioid intracellular receptor 1 (Homo sapiens) (UniProt Q99720); details: Compound concentration 10.0 uM
[21] = biological target: Alpha-2B adrenergic receptor (Homo sapiens) (UniProt P18089); details: Compound concentration 10.0 uM
MV4-11 = experiment: MV4-11 cell line Proliferation assay; type: functional, Homo sapiens
[22] = biological target: T4, Sodium-dependent dopamine transporter (Homo sapiens, UniProt Q01959); details: Compound concentration 10.0 uM
[23] = biological target: T5, 5-hydroxytryptamine receptor 5A (Homo sapiens, UniProt P47898); details: Compound concentration 10.0 uM
[24] = biological target: Alpha-1B adrenergic receptor (Homo sapiens) (UniProt P35368); details: Compound concentration 10.0 uM
[25] = biological target: 5-hydroxytryptamine receptor 2B (Homo sapiens) (UniProt P41595); details: Compound concentration 10.0 uM
Mu-type opioid receptor [26] = biological target: T6, Mu-type opioid receptor (Homo sapiens, UniProt P35372); experiment: GPCRScan assay: inhibition of MOR; design: radioligand conc. used [nm] 1.0 – 2.0, parental cells stable HEK
KMS-12-PE [27] = experiment: KMS-12-PE Bax/Bak dKO cell line Proliferation assay; type: functional, Homo sapiens
MOLP-8 = experiment: MOLP8 cell line Proliferation assay; type: functional, Homo sapiens
[28] = biological target: 5-hydroxytryptamine receptor 1A (Homo sapiens) (UniProt P08908); details: Compound concentration 10.0 uM
KMS-12-PE [29] = experiment: as §1; type: functional, Homo sapiens; remark: listed apart in the source
[30] = biological target: Muscarinic acetylcholine receptor M2 (Homo sapiens) (UniProt P08172); details: Compound concentration 10.0 uM
Bcl-2-like protein 1 = Bcl-2-like protein 1 (Homo sapiens, UniProt Q07817); experiment: HTRF (BCL2L1)
[31] = biological target: 5-hydroxytryptamine receptor 1D (Homo sapiens) (UniProt P28221); details: Compound concentration 10.0 uM
[32] = biological target: D(1B) dopamine receptor (Homo sapiens) (UniProt P21918); details: Compound concentration 10.0 uM
[33] = biological target: D(2) dopamine receptor (Homo sapiens) (UniProt P14416); details: Compound concentration 10.0 uM
NOMO-1 = experiment: NOMO-1 cell line Proliferation assay; type: functional, Homo sapiens
[34] = biological target: Histamine H1 receptor (Homo sapiens) (UniProt P35367); details: Compound concentration 10.0 uM
KMS-12-PE [35] = experiment: KMS-12-PE MCL-1 KO cell line Proliferation assay; type: functional, Homo sapiens
[36] = biological target: 5-hydroxytryptamine receptor 7 (Homo sapiens) (UniProt P34969); details: Compound concentration 10.0 uM
Rattus norvegicus = organism: Rattus norvegicus; details: Compound concentration 10.0 uM
[37] = biological target: T2, Induced myeloid leukemia cell differentiation protein Mcl-1; experiment: HTRF (MCL1)
Mino = experiment: MINO cell line Proliferation assay; type: functional, Homo sapiens
[38] = biological target: Histamine H2 receptor (Homo sapiens) (UniProt P25021); details: Compound concentration 10.0 uM
[39] = biological target: Alpha-1D adrenergic receptor (Homo sapiens) (UniProt P25100); details: Compound concentration 10.0 uM
[40] = biological target: D(3) dopamine receptor (Homo sapiens) (UniProt P35462); details: Compound concentration 10.0 uM
[41] = biological target: Sodium-dependent serotonin transporter (Homo sapiens) (UniProt P31645); details: Compound concentration 10.0 uM
[42] = biological target: T3, Delta-type opioid receptor; experiment: GPCRScan assay: inhibition of DOR; design: radioligand conc. used [nm] 1.0 – 2.0, parental cells stable HEK
[43] = biological target: Sigma intracellular receptor 2 (Homo sapiens) (UniProt Q5BJF2); details: Compound concentration 10.0 uM
[44] = biological target: 5-hydroxytryptamine receptor 3A (Homo sapiens) (UniProt P46098); details: Compound concentration 10.0 uM
MOLM-13 = experiment: MOLM-13 cell line Proliferation assay; type: functional, Homo sapiens
[45] = biological target: Muscarinic acetylcholine receptor M4 (Homo sapiens) (UniProt P08173); details: Compound concentration 10.0 uM
[46] = biological target: Alpha-1A adrenergic receptor (Homo sapiens) (UniProt P35348); details: Compound concentration 10.0 uM
Mu-type opioid receptor [47] = biological target: T6, Mu-type opioid receptor; details: Compound concentration 10.0 uM
[48] = biological target: T4, Sodium-dependent dopamine transporter; experiment: GPCRScan assay: inhibition of DAT; design: radioligand conc. used [nm] 3.6 – 16.0, parental cells stable HEK
[49] = biological target: T5, 5-hydroxytryptamine receptor 5A; experiment: GPCRScan assay: inhibition of 5-HT5A; design: radioligand conc. used [nm] 2.0 - 3.3, parental cells Flp-In CHO
[50] = biological target: 5-hydroxytryptamine receptor 1A (Homo sapiens, UniProt P08908); experiment: GPCRScan assay: inhibition of 5-HT1A; design: radioligand conc. used [nm] 0.5 – 1.0, parental cells stable CHO
[51] = biological target: T1, Sodium-dependent noradrenaline transporter; experiment: GPCRScan assay: inhibition of NET; design: radioligand conc. used [nm] 1.3 – 5.0, parental cells stable HEK
[52] = biological target: Beta-1 adrenergic receptor (Homo sapiens) (UniProt P08588); details: Compound concentration 10.0 uM

Sequence of Beta-3 adrenergic receptor (Homo sapiens) (P13945 whole entry, looked up): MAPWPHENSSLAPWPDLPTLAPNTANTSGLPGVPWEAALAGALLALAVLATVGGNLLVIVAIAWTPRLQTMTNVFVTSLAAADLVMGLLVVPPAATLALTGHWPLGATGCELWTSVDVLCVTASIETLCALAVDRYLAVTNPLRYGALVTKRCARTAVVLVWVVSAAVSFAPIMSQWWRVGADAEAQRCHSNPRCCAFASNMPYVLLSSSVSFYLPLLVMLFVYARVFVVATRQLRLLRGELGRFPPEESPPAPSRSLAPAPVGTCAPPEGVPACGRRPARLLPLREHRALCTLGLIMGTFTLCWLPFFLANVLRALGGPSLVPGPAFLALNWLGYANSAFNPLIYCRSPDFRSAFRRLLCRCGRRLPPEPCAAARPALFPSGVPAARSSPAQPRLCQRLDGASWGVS
Sequence of Alpha-2A adrenergic receptor (Homo sapiens) (P08913 whole entry): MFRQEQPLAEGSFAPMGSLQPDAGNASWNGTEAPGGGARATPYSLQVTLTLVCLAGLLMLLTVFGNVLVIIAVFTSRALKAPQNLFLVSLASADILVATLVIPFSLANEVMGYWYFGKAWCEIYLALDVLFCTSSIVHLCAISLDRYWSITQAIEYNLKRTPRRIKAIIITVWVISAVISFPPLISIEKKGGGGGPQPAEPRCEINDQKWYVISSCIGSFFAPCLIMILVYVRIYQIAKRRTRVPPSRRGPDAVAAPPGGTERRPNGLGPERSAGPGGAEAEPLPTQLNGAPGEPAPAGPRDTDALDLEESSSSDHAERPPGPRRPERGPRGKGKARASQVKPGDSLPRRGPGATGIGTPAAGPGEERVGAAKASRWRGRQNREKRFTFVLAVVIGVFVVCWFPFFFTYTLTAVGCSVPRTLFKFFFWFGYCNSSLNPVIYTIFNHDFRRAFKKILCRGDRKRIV
Sequence of Alpha-2B adrenergic receptor (Homo sapiens) (P18089 whole entry): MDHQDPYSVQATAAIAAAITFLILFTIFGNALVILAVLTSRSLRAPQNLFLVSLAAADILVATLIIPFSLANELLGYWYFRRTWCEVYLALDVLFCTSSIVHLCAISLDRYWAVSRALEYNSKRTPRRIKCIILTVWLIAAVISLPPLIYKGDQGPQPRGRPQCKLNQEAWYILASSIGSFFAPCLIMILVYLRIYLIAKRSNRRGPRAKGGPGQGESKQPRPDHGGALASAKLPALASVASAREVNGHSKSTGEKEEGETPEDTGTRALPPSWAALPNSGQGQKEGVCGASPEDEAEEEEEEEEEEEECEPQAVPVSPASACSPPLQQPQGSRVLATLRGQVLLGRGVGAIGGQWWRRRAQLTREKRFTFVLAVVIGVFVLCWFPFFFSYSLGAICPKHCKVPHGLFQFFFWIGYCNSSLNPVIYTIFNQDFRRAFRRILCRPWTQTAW
Sequence of Muscarinic acetylcholine receptor M3 (Homo sapiens) (P20309 whole entry, looked up): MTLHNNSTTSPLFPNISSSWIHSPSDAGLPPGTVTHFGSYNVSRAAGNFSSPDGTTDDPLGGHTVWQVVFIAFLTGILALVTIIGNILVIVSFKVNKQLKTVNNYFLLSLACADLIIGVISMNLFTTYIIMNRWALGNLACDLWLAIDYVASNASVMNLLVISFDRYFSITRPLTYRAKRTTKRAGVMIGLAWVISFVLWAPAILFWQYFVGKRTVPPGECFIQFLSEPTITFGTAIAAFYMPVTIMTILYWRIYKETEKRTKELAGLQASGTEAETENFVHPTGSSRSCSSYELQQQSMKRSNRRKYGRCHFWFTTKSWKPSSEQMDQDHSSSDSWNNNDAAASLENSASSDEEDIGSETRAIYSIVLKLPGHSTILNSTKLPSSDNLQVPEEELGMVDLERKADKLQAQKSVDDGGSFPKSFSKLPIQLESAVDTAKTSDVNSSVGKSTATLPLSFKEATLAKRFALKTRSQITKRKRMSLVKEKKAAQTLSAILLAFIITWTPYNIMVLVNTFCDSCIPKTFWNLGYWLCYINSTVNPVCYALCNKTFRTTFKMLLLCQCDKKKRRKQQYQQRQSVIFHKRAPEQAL
Sequence of Muscarinic acetylcholine receptor M5 (Homo sapiens) (P08912 whole entry): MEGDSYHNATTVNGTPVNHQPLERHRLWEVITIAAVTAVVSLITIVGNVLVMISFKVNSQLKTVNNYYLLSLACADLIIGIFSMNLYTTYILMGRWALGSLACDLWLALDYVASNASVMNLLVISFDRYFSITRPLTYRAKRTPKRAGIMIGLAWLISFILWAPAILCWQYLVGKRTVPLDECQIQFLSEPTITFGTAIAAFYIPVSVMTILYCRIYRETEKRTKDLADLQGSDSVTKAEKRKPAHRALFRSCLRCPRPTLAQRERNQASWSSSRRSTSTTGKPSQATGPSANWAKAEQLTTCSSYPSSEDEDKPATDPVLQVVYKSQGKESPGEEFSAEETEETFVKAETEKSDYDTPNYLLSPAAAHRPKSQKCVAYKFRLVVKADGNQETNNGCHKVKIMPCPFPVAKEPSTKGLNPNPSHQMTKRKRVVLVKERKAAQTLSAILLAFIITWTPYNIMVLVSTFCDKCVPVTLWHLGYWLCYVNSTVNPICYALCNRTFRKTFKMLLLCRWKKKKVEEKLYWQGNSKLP
Sequence of 5-hydroxytryptamine receptor 2A (Homo sapiens) (P28223 whole entry): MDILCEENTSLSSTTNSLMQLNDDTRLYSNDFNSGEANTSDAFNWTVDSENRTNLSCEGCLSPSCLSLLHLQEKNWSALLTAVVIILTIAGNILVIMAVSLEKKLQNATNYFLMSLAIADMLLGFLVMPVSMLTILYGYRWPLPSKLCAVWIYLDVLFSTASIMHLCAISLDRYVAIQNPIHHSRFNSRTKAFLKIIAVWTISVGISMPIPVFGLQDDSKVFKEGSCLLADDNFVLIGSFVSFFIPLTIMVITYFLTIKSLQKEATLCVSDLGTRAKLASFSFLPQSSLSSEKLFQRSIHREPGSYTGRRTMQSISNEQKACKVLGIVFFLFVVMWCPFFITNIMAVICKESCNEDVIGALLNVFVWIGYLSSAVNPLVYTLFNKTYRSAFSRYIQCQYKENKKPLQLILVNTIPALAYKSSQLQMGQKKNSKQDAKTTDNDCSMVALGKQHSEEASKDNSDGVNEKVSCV
T4 sequence (Q01959 whole entry): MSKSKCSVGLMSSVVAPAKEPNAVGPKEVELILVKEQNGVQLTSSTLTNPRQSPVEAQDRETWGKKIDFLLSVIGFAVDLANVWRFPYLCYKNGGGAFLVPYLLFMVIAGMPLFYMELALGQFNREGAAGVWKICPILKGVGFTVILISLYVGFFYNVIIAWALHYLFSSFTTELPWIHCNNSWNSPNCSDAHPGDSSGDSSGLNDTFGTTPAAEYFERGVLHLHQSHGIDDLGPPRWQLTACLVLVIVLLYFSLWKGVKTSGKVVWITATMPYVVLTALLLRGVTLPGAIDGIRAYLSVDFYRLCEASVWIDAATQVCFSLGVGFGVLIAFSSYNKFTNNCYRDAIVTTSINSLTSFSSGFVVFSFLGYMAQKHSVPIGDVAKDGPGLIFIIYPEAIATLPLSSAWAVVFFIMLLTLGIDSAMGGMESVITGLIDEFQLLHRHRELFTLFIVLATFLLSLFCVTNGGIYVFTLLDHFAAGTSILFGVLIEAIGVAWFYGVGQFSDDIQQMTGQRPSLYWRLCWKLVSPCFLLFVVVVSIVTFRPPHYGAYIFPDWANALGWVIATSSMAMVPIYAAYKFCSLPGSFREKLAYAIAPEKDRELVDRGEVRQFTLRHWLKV
T3 sequence (P41143 whole entry): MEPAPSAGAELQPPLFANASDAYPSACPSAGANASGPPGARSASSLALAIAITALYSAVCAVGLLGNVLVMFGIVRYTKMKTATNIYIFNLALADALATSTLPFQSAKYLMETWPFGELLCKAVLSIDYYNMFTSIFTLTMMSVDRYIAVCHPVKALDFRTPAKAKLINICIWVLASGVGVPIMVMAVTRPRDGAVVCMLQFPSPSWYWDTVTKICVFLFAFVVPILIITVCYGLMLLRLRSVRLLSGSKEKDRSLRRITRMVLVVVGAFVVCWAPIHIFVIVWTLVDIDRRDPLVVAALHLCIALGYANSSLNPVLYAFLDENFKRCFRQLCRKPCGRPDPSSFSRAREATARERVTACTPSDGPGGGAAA
Sequence of 5-hydroxytryptamine receptor 1A (P08908 whole entry): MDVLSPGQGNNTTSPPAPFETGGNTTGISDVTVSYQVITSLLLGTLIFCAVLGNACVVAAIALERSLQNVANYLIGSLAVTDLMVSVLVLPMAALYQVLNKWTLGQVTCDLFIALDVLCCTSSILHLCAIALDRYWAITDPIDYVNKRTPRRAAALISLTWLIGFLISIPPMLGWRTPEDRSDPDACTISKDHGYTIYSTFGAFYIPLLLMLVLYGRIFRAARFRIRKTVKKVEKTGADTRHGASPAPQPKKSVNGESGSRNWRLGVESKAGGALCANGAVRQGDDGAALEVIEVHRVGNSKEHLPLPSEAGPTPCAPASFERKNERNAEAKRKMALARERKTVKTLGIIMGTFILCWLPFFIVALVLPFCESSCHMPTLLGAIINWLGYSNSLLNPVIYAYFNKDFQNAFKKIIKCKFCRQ
Sequence of 5-hydroxytryptamine receptor 1A (Homo sapiens) (P08908 whole entry): as above
Sequence of 5-hydroxytryptamine receptor 7 (Homo sapiens) (P34969 whole entry): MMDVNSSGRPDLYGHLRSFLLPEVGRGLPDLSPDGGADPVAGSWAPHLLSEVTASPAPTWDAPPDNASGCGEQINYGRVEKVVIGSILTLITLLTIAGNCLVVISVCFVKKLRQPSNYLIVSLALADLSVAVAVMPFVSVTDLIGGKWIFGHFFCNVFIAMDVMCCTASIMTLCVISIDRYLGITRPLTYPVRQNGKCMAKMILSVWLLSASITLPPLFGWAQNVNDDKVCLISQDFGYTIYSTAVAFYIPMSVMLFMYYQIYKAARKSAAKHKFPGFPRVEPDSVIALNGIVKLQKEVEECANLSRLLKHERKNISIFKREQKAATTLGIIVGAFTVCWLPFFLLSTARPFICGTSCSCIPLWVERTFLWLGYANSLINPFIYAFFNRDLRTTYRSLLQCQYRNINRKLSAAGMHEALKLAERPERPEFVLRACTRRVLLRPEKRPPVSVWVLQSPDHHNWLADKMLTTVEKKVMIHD

SMILES: COCCOCCn1nc2c(c1C)-c1c(Cl)ccc3c1c(C)c(C(=O)O)n3CCCOc1cc(cc3c(F)c(Cl)ccc13)CCc1cc(nn1C)CSC2
- inhibition [1]: 21.5%
- Cell Proliferation AC50 (SUD4): 21 nM
- inhibition [2]: 30.1%
- inhibition [3]: 4.67%
- Cell Proliferation AC50 (THP-1): 27 nM
- inhibition [4]: 1.66%
- inhibition [5]: 3.84%
- inhibition [6]: 10.4%
- inhibition [7]: 4.71%
- inhibition [8]: -9.51%
- Ki (Bcl-2-related protein A1): > 5 µM (not active)
- Ki [9]: > 3.75 µM (not active)
- inhibition [10]: 2.7%
- inhibition [11]: -0.43%
- AC50 [12]: 0.012 µM (active)
- Cell Proliferation AC50 (KMS-12-PE [13]): 69 nM
- inhibition [14]: 61.9%
- inhibition [15]: 4.96%
- inhibition [16]: 9.97%
- Cell Proliferation AC50 (OCI-AML2): 48 nM
- inhibition [17]: 0.68%
- inhibition [18]: 24.5%
- inhibition [19]: -0.64%
- Cell Proliferation AC50 (EOL1): 2.1 nM
- inhibition [20]: 20.6%
- inhibition [21]: 6.6%
- Cell Proliferation AC50 (MV4-11): 14 nM
- inhibition [22]: 49.5%
- inhibition [23]: 28.5%
- inhibition [24]: -1.94%
- inhibition [25]: -1.5%
- Ki (Mu-type opioid receptor [26]): > 10 µM
- pKi (Mu-type opioid receptor [26]): < 5
- Cell Proliferation AC50 (KMS-12-PE [27]): >30 µM
- Cell Proliferation AC50 (MOLP-8): 8.7 nM
- inhibition [28]: 47.8%
- Cell Proliferation AC50 (KMS-12-PE [29]): 79 nM
- inhibition [30]: -0.94%
- Ki (Bcl-2-like protein 1): > 5 µM (not active)
- inhibition [31]: -6.42%
- inhibition [32]: 26.2%
- inhibition [33]: -6.66%
- Cell Proliferation AC50 (NOMO-1): 4.8 nM
- inhibition [34]: -0.28%
- Cell Proliferation AC50 (KMS-12-PE [35]): >30 µM
- inhibition [36]: 20.1%
- inhibition (Rattus norvegicus): 18.7%
- Ki [37]: 0.015 nM (active)
- Cell Proliferation AC50 (Mino): 73 nM
- inhibition [38]: 13.1%
- inhibition [39]: 2.28%
- inhibition [40]: 13.5%
- inhibition [41]: 11.2%
- Ki ([42]; read-out: Ki): 871 nM
- Ki ([42]; read-out: pKi (converted)): 724 nM
- inhibition [43]: 17.4%
- inhibition [44]: 6.57%
- Cell Proliferation AC50 (MOLM-13): 10 nM

SMILES: COCCOCCn1nc(C)c2c1CSCc1cc(n(C)n1)CCc1cc(c3ccc(F)cc3c1)OCCCn1c(C(=O)O)c(C)c3c-2c(Cl)ccc31
- inhibition [1]: 6.61%
- inhibition [2]: 58.9%
- inhibition [45]: -9.96%
- inhibition [3]: 1.89%
- inhibition [4]: 7.75%
- inhibition [5]: 7%
- inhibition [6]: 34.7%
- inhibition [46]: -4.41%
- inhibition [7]: -3.65%
- inhibition [8]: 2.15%
- inhibition [10]: 3.35%
- inhibition [11]: -1.43%
- AC50 [12]: > 30 µM (not active)
- inhibition (Mu-type opioid receptor [47]): 10.4%
- inhibition [14]: 78%
- inhibition [15]: -6.18%
- Ki ([48]; read-out: Ki): 3.72 µM
- Ki ([48]; read-out: pKi (converted)): 3.55 µM
- inhibition [16]: 26%
- Ki ([49]; read-out: Ki): 2470 nM
- Ki ([49]; read-out: pKi (converted)): 2450 nM
- inhibition [17]: 36.6%
- inhibition [18]: 14.2%
- inhibition [19]: 10.6%
- Ki ([50]; read-out: Ki): 1700 nM
- Ki ([50]; read-out: pKi (converted)): 1580 nM
- Ki ([51]; read-out: Ki): 2880 nM
- Ki ([51]; read-out: pKi (converted)): 2750 nM
- inhibition [20]: 30.7%
- inhibition [21]: 29.5%
- inhibition [22]: 57.7%
- inhibition [23]: 54.5%
- inhibition [24]: -0.92%
- inhibition [25]: 6.21%
- inhibition [28]: 76.5%
- inhibition [30]: 4.4%
- inhibition [31]: 31.4%
- inhibition [32]: 51.7%
- inhibition [33]: -6.49%
- inhibition [34]: 10.8%
- inhibition [36]: 19%
- inhibition (Rattus norvegicus): 11.8%
- Ki [37]: 115 nM (not active)
- inhibition [38]: 11.6%
- inhibition [52]: -3.32%
- inhibition [39]: 1.09%
- inhibition [40]: 18.2%
- inhibition [41]: 11.4%
- Ki ([42]; read-out: Ki): 3230 nM
- Ki ([42]; read-out: pKi (converted)): 2630 nM
- inhibition [43]: 23.4%
- inhibition [44]: 8.89%

Reference: ChEMBL document CHEMBL5303767, “Data for DCP probe JNJ-4355” (2023)
